Data: patent US20200253877A1, “GEMCABENE, PHARMACEUTICALLY ACCEPTABLE SALTS THEREOF, COMPOSITIONS THEREOF AND METHODS OF USE THEREFOR” (NEUROBO PHARMACEUTICALS, INC., priority 2018, published 2020)

Legend:
[1] = Aqueous solubility of gemcabene calcium salt forms over 24 hours (HPLC concentration, XRPD form); assay type: physicochemical; conditions: approximately 25° C.
Protocol: To each vial, approximately 3 mL to 4 mL water were added and the samples were mixed at ambient temperature (approximately 25° C.) for approximately 24 hours. […] From each vial, samples of the slurries were taken after 1, 4, and 24 hours, which were separated by centrifugation. The solids were separated by centrifugation and analyzed by XRPD for solid form and by HPLC for concentration.

[2] = Stability study of gemcabene calcium salt forms (XRPD form, HPLC/CAD purity); assay type: physicochemical
Protocol: The stability studies were carried out using storage conditions at a) 40° C. and 75% relative humidity (RH), b) at 80° C. and c) at ambient temperature (approximately 22° C.). After 7 days and 14 days, the samples were removed from the relevant storage conditions and initially analyzed by XRPD to identify any form changes. The samples were then analyzed by HPLC/CAD (high-performance liquid chromatography equipped with a charged aerosol detector) for purity, with all solid purity values given on a w/w % basis.

[3] = Effect of steady-state gemcabene 600 mg on single-dose pharmacokinetics of ON 1/35 (ethinyl estradiol/norethindrone) in healthy female subjects; assay type: in vivo, human; conditions: 600 mg daily at steady state; single dose ON 1/35
Protocol: An open-label, two-sequence, cross-over study to assess the steady-state effects of gemcabene calcium on the single-dose pharmacokinetics (PK) of oral contraceptive tablets in healthy female subjects was conducted with 300 mg tablets containing gemcabene calcium salt hydrate Crystal Form 1 having PSD90 of 52 μm (film-coated Tablet F).
The population for this study was generally healthy, adult female subjects of childbearing potential (≥18 to ≤35 years of age). This population supports the overall objective of the study to evaluate the effect of 600 mg of gemcabene calcium salt hydrate Crystal Form 1 having PSD90 of 52 μm at steady-state on the PK of a single dose of ON 1/35 (Ortho Novum 1/35; combined ethinyl estradiol/norethindrone oral contraceptive). The primary objective of this study was to assess the effect of daily 600 mg of gemcabene calcium salt hydrate Crystal Form 1 having PSD90 of 52 μm at steady-state on the pharmacokinetics (PK) of ON 1/35. The secondary objectives of this study were to assess the safety and tolerability of daily gemcabene 600 mg in combination with a single-dose ON 1/35 and to assess the steady-state PK of 600 mg of gemcabene calcium salt hydrate Crystal Form 1 having PSD90 of 52 μm (film-coated Tablet F×2). […]

[4] = 12-week placebo-controlled study in hypercholesterolemia patients on statins: safety and tolerability; assay type: in vivo; conditions: 600 mg QD, 12 weeks
Protocol: High-risk patients including some, but not all those with heterozygous familial hypercholesterolemia (HeFH) or atherosclerotic cardiovascular disease (ASCVD) on appropriate diet and stable statin therapy for at least 12 weeks and LDL-C ≥100 mg/dL (2.59 mmol/L) and triglycerides <500 mg/dL (5.65 mmol/L) were randomized into a 12-week, placebo-controlled, parallel-group, double-blind study to assess the efficacy of gemcabene calcium salt hydrate Crystal Form 1 (PSD90=52 μm) 600 mg (300-mg film-coated Tablet D×2) QD on LDL-C and other lipoproteins and hsCRP (high-sensitivity C-reactive protein). Safety and tolerability were also evaluated. The patients were stratified by high- or moderate-intensity statin therapy, with or without ezetimibe, with a target of 52 patients (26 patients on 600 mg gemcabene calcium salt hydrate Crystal Form 1 as administered by 2×film-coated Tablet D and 26 patients on placebo (“placebo”)) in each stratum. […] Mean baseline LDL-C for all patients was approximately 134 mg/dL (3.48 mmol/L) with most patients in the high-intensity statin stratum on atorvastatin and most patients in the moderate-intensity stratum on either simvastatin or atorvastatin.
33 of 54 patients (61.1%) in the film-coated Tablet D group and 24 of 51 patients (47.1%) in the placebo group who reported at least one AE during the study. […]

In the case of `CC(C)(CCCCOCCCCC(C)(C)C(=O)O)C(=O)O.[Ca]` [6-(5-Carboxy-5-methyl-hexyloxy)-2,2-dimethylhexanoic acid calcium], the “change in polymorphic form during the test period (XRPD)” value ([1]; slurry in water, 24 hours) is reported as “no change in polymorphic form”, the “change in concentration (HPLC) during the experiment” value ([1]; slurry in water, sampled 1, 4, 24 hours) is reported as “small increase” and the solubility at 1 h ([1]; thermodynamic from solid, water, 1 h, read-out: Conc. (aqueous solubility)) is reported as 96.2 mg/mL. For the same molecule, the solubility at 4 h ([1]; thermodynamic from solid, water, 4 h, read-out: Conc. (aqueous solubility)) was 98.3 mg/mL, the solubility at 24 h ([1]; thermodynamic from solid, water, 24 h, read-out: Conc. (aqueous solubility)) was 99.5 mg/mL and the “Form (XRPD) of solid in water slurry” value ([1]; water, 1 h) was “Form 1”. For the same molecule, the “Form (XRPD) of solid in water slurry” value ([1]; water, 4 h) was “Form 1”, the “Form (XRPD) of solid in water slurry” value ([1]; water, 24 h) was “Form 1” and the “change in form (XRPD)” value ([2]; 2-week study, 40° C./75% RH, 80° C. and ambient) was “No change in the form”. The “Form (XRPD)” value ([2]; 40° C./75% RH, 1 Week) was “Form 1”, the Purity ([2]; 40° C./75% RH, 1 Week) was 80.8% and the “Form (XRPD)” value ([2]; 40° C./75% RH, 2 Weeks) was “Form 1”. The Purity ([2]; 40° C./75% RH, 2 Weeks) was 84.2%, the “Form (XRPD)” value ([2]; 80° C., 1 Week) was “Form 1” and the Purity ([2]; 80° C., 1 Week) was 80.6%. The “Form (XRPD)” value ([2]; 80° C., 2 Weeks) was “Form 1”, the Purity ([2]; 80° C., 2 Weeks) was 83.9% and the “Form (XRPD)” value ([2]; Ambient, 1 Week) was “Form 1”. The Purity ([2]; Ambient, 1 Week) was 80.7%, the “Form (XRPD)” value ([2]; Ambient, 2 Weeks) was “Form 1” and the Purity ([2]; Ambient, 2 Weeks) was 84.6%. For the same molecule, the “purity (HPLC/CAD) compared to the starting form” value ([2]; after 2 weeks storage, all 3 storage conditions) was “drop in purity”, the “Starting Purity” value ([2]; before storage, HPLC/CAD, w/w %) was 87.5% and the “drug-drug interaction with ethinyl estradiol and norethindrone” value [3] was “mild drug-drug interaction”. For the same molecule, the “serious adverse events and deaths” value [4] was “no serious adverse events (AEs) and no deaths”.
